From patent US8802724B2, “Processes and intermediates for preparing substituted hexahydrofuro [2,3-b] furans” (Purdue Research Foundation, priority 2010, dated 2014) come the findings set out here.

Structures are written as SMILES. pIC50, pKi: −log10 of the molar value. Like-named read-outs stand apart in the source and are kept apart here.

For one test, the system named is HIV-1LAI. The test is described as follows: Antiviral MTT assay, MT-2 cells exposed to HIV-1LAI. The class given is cell-based. Conditions: Human immunodeficiency virus 1, MT2. The protocol:
As shown in Scheme 4, alcohols 14, 15, 20, and 21 were activated with p-nitrophenyl chloroformate to provide mixed activated carbonates 21a-d. These carbonates were reacted with amine 22 to afford HIV-1 protease inhibitors 23a-d. These inhibitors were evaluated for their activity in both enzyme inhibitory and antiviral assays. The enzyme inhibitory activity (Ki) was determined according to an assay protocol reported by Toth and Marshall (Toth, M. V.; Marshall, G. R. Int. J. Pep. Protein Res. 1990, 36, 544-550). […] Antiviral IC50 values were determined using the MTT assay (Koh, Y., et al., Antimicrob. Agents Chemother. 2003, 47, 3123-3129.).

The target of a further test is HIV-1 protease (Human immunodeficiency virus type 1 group M subtype B (isolate HXB2) (HIV-1), UniProt P04585). The test is described as follows: biochemical. Conditions: enzymatic inhibitory activity.

In the test with HIV-1LAI, `COc1ccc(S(=O)(=O)N(CC(C)C)C[C@@H](O)[C@H](Cc2ccccc2)NC(=O)O[C@H]2CO[C@H]3OC[C@@H](OC)[C@H]32)cc1` [Compound 23a, (3R,3aS,4S,6aR)-4-methoxyhexahydrofuro[2,3-b]furan-3-yl-(2S,3R)-3-hydroxy-4-(N-isobutyl-4-methoxyphenylsulfonamido)-1-phenylbutan-2-ylcarbamate] had a pIC50 of 7.25. In addition, the pKi at HIV-1 protease was 10.46.
As to `COc1ccc(S(=O)(=O)N(CC(C)C)C[C@@H](O)[C@H](Cc2ccccc2)NC(=O)O[C@H]2CO[C@H]3OC[C@@H](OCc4ccccc4)[C@H]32)cc1` [Compound 23b, (3R,3aS,4S,6aR)-4-(benzyloxy)hexahydrofuro[2,3-b]furan-3-yl-(2S,3R)-3-hydroxy-4-(N-isobutyl-4-methoxyphenylsulfonamido)-1-phenylbutan-2-ylcarbamate], the pIC50 in the test on HIV-1LAI was 6.47. At HIV-1 protease, this molecule gave a pKi of 10.14.
For `COc1ccc(S(=O)(=O)N(CC(C)C)C[C@@H](O)[C@H](Cc2ccccc2)NC(=O)O[C@H]2CO[C@H]3OC[C@H](OC)[C@H]32)cc1` [Compound 23c, (3R,3aS,4R,6aR)-4-methoxyhexahydrofuro[2,3-b]furan-3-yl-(2S,3R)-3-hydroxy-4-(N-isobutyl-4-methoxyphenylsulfonamido)-1-phenylbutan-2-ylcarbamate], in that order: 8.62 and 11.54.
At HIV-1 protease, `COc1ccc(S(=O)(=O)N(CC(C)C)C[C@@H](O)[C@H](Cc2ccccc2)NC(=O)O[C@H]2CO[C@H]3OC[C@H](OCc4ccccc4)[C@H]32)cc1` [Compound 23d, (3R,3aS,4R,6aR)-4-(benzyloxy)hexahydrofuro[2,3-b]furan-3-yl-(2S,3R)-3-hydroxy-4-(N-isobutyl-4-methoxyphenylsulfonamido)-1-phenylbutan-2-ylcarbamate] showed a negative-log Ki (pKi) of 9.52.
Regarding `COc1ccc(S(=O)(=O)N(CC(C)C)C[C@@H](O)[C@H](Cc2ccccc2)NC(=O)O[C@H]2CO[C@H]3OCC[C@H]32)cc1` [Entry 1, reference compound], the negative-log IC50 (pIC50) in the test on HIV-1LAI (Human T-lymphoid (MT-2) cells exposed to 100 TCID50 of HIV-1LAI, MTT assay, means of at least three experiments, read-out: IC50) was 8.85.
